# Test results as given in US8604217B2, “Compound, a process for its preparation, a pharmaceutical composition, use of a compound, a method for modulating or regulating serine/threonine kinases and a serine/threonine kinases modulating agent” (Selvita S.A., priority 2009, dated 2013).
# Experiments:
# [1] = molecular target: PIM-1 (Homo sapiens (Human), UniProt P11309); assay: Luminometric kinase assay for PIM1 kinase (Kinase-Glo); type: biochemical; conditions: 1 μM ATP, 25 min at RT
# Summary of the method: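 Kinase and substrate reacted in 8 mM MOPS/NaOH pH7.0, 0.2 mM EDTA, 2 mM MgCl2 with 1 μM ATP for 25 min at RT, compounds serially diluted from 1 μM. Remaining ATP read by Kinase-Glo luminescence; IC50 from variable-slope sigmoidal fit.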
# [2] = tested on: human chronic myelocytic leukemia K562 cells; assay: Growth inhibition test (MTS) on K562 cells; type: cell-based; conditions: Homo sapiens, K562, 72 hours, read-out: K562 ED50
# Protocol: (§1) Ten thousand cells of human chronic myelocytic leukemia K562 were inoculated into each well of a 96-well microplate (manufactured by Corning Corp.) using Iscove's MDM medium (culture medium) containing 10% fetal calf serum (FCS). Next day, a dimethyl sulfoxide (DMSO) solution of each test compound prepared in a concentration of 10 mmol/L was further diluted with culture medium to the desired concentrations (0.1, 0.5, 1, 2.5, 5 and 10 micromol/L), and the diluted solution was added to each well. The individual wells were further cultured in 5% carbon dioxide at 37° C. for 72 hours. After completion of the culture, 10 μl MTS (3-(4,5-Dimethyl-2-thiazolyl)-5-(carboxymethoxyphenyl)-2-(4-sulfophenyl)-2H-tetrazolium, inner salt assay (CellTiter96® AQueous One Solution Cell Proliferation Assay, Promega) was added to each well, and culturing was performed in 5% carbon dioxide at 37° C. for 2 hours. Using a microplate spectrophotometer (Synergy 2 multi-mode microplate reader (BioTek)), the absorbance of each well was measured at 490 nm. The value for cells not incorporated with a test compound was designated as 100%. By comparing these values with the absorbance difference obtained at the well in which each test compound was added, the cell viability (% viability) after treatment with the test compound was calculated.
# [3] = tested on: human colorectal adenocarcinoma SW480 cells; assay: Growth inhibition test (MTS) on SW480 cells; type: cell-based; conditions: Homo sapiens, SW480, 72 hours, read-out: SW480 ED50
# Protocol: as §1, with “Two” for “Ten”, “colorectal adenocarcinoma SW480” for “chronic myelocytic leukemia K562”, “Corp.), and” for “Corp.)”, “DMEM/Ham's F121:1” for “Iscove's MDM”, “5%” for “10%”
# [4] = tested on: human prostate adenocarcinoma PC3 cells; assay: Growth inhibition test (MTS) on PC3 cells; type: cell-based; conditions: Homo sapiens, PC-3, 72 hours, read-out: PC-3 ED50
# [5] = tested on: human hepatoma HepG2 cells; assay: Growth inhibition test (MTS) on HepG2 cells; type: cell-based; conditions: 72 hours, read-out: HepG2 ED50
# Summary of the method: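 HepG2 cells in DMEM with 10% FCS were exposed for 72 h at 37 °C, 5% CO2, to 0.1, 0.5, 1, 2.5, 5 and 10 micromol/L compound. MTS was then added for 2 h and absorbance read at 490 nm. % viability was calculated relative to untreated cells set at 100%.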
# Chain of PIM-1 (P11309 whole entry): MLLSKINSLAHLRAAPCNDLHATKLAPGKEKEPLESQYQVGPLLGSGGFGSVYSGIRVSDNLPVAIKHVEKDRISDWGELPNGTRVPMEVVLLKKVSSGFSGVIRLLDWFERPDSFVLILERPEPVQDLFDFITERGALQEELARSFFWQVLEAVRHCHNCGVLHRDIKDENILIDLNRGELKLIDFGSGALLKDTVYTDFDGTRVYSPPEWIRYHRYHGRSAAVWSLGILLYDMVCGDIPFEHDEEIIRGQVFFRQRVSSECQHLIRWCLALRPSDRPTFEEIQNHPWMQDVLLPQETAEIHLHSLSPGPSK
IC50 [1] [µM],IC50 [2] [µM],IC50 [3] [µM],IC50 [4] [µM],IC50 [5] [µM],SMILES
0.0151,5.59,2.03,5.65,3.8,"NC1CCC(Nc2nc3c(Br)c(Br)c(Br)c(Br)c3[nH]2)CC1 (stereo not drawn) [Compound 87, N1-(4,5,6,7-tetrabromo-1H-benzo[d]imidazol-2-yl)cyclohexane-1,4-diamine]"
0.0188,6.88,4.15,8.4,4.87,"NC1CCCC(Nc2nc3c(Br)c(Br)c(Br)c(Br)c3[nH]2)C1 (stereo not drawn) [Compound 336, N1-(4,5,6,7-tetrabromo-1H-benzo[d]imidazol-2-yl)cyclohexane-1,3-diamine]"
0.0256,3.02,1.61,3.83,2.4,"Brc1c(Br)c(Br)c2[nH]c(N[C@H]3COC[C@@H]3N3CCCC3)nc2c1Br [Compound 337, 4,5,6,7-tetrabromo-N-((3R,4R)-tetrahydro-4-(pyrrolidin-1-yl)furan-3-yl)-1H-benzo[d]imidazol-2-amine]"
0.00582,6.64,2.42,6.2,2.65,"CN1CCCC(Nc2nc3c(Br)c(Br)c(Br)c(Br)c3[nH]2)CC1 (stereo not drawn) [Compound 358, 4,5,6,7-tetrabromo-N-(1-methylazepan-4-yl)-1H-benzo[d]imidazol-2-amine]"
0.0035,5.04,2.84,5.6,1.7,"Brc1c(Br)c(Br)c2[nH]c(NC3CCCNCC3)nc2c1Br (stereo not drawn) [Compound 366, N-(azepan-4-yl)-4,5,6,7-tetrabromo-1H-benzo[d]imidazol-2-amine]"
0.0411,3.53,0.55,2.45,1.4,"CC(C)NC1CCCCC1Nc1nc2c(Br)c(Br)c(Br)c(Br)c2[nH]1 (stereo not drawn) [Compound 369, N1-(4,5,6,7-tetrabromo-1H-benzo[d]imidazol-2-yl)-N2-isopropylcyclohexane-1,2-diamine]"
0.119,2.73,0.58,1.45,1.36,"CCCCCNC1CCCCC1Nc1nc2c(Br)c(Br)c(Br)c(Br)c2[nH]1 (stereo not drawn) [Compound 413, N1-(4,5,6,7-tetrabromo-1H-benzo[d]imidazol-2-yl)-N2-pentylcyclohexane-1,2-diamine]"
0.00668,5.64,1.27,5.79,,"Brc1c(Br)c(Br)c2[nH]c(NC3CCNCC3)nc2c1Br [Compound 435, 4,5,6,7-tetrabromo-N-(piperidin-4-yl)-1H-benzo[d]imidazol-2-amine]"

# The remaining lines, values behind:
SMILES,IC50 [1] [µM],IC50 [2] [µM],IC50 [3] [µM],IC50 [4] [µM],IC50 [5] [µM]
"NCCCNc1nc2c(Br)c(Br)c(Br)c(Br)c2[nH]1 [Compound 11, N-(3-aminopropyl)-4,5,6,7-tetrabromo-1H-benzo[d]imidazol-2-amine]",0.00589,7.47,2.47,4.9,2.84
"Brc1c(Br)c(Br)c2[nH]c(N3CCNCC3)nc2c1Br [Compound 20, 4,5,6,7-tetrabromo-2-(piperazin-1-yl)-1H-benzo[d]imidazole]",0.0169,6.46,3.45,5.14,2.86
"Brc1c(Br)c(Br)c2[nH]c(N[C@H]3COC[C@@H]3N3CCCCC3)nc2c1Br [Compound 338, 4,5,6,7-tetrabromo-N-((3R,4R)-tetrahydro-4-(piperidin-1-yl)furan-3-yl)-1H-benzo[d]imidazol-2-amine]",0.0217,5.03,1.95,4.76,2.76
"NCc1ccccc1CNc1nc2c(Br)c(Br)c(Br)c(Br)c2[nH]1 [Compound 349, N-(2-(aminomethyl)benzyl)-4,5,6,7-tetrabromo-1H-benzo[d]imidazol-2-amine]",0.0698,6.51,1.61,4.7,2.51
"CC(C)n1c(N2CCNCC2)nc2c(Br)c(Br)c(Br)c(Br)c21 [Compound 359, 4,5,6,7-tetrabromo-1-isopropyl-2-(piperazin-1-yl)-1H-benzo[d]imidazole]",0.00684,3.05,1.6,2.95,1.85
"C[C@@H]1CN(c2nc3c(Br)c(Br)c(Br)c(Br)c3[nH]2)[C@@H](C)CN1 [Compound 364, 4,5,6,7-tetrabromo-2-((2S,5R)-2,5-dimethylpiperazin-1-yl)-1H-benzo[d]imidazole]",0.0103,5.21,1.27,4.58,2.33
"Brc1c(Br)c(Br)c2c(nc(N3CCNCC3)n2Cc2ccccc2)c1Br [Compound 374, 1-benzyl-4,5,6,7-tetrabromo-2-(piperazin-1-yl)-1H-benzo[d]imidazole]",0.107,2.94,1.44,2.5,1.33
"CN(C)C1CCCN(c2nc3c(Br)c(Br)c(Br)c(Br)c3[nH]2)C1 (stereo not drawn) [Compound 378, 1-(4,5,6,7-tetrabromo-1H-benzo[d]imidazol-2-yl)-N,N-dimethylpiperidin-3-amine]",0.0391,,5,6.66,4.2
"Brc1c(Br)c(Br)c2[nH]c(N3CCC(C4CCNCC4)CC3)nc2c1Br [Compound 386, 4,5,6,7-tetrabromo-2-(4-(piperidin-4-yl)piperidin-1-yl)-1H-benzo[d]imidazole]",0.058,2.86,1.77,2.77,
"CCn1c(N2CCNCC2)nc2c(Br)c(Br)c(Br)c(Br)c21 [Compound 416, 4,5,6,7-tetrabromo-1-ethyl-2-(piperazin-1-yl)-1H-benzo[d]imidazole]",0.00655,3.65,1.25,2.1,1.31
"CCCn1c(N2CCNCC2)nc2c(Br)c(Br)c(Br)c(Br)c21 [Compound 417, 4,5,6,7-tetrabromo-2-(piperazin-1-yl)-1-propyl-1H-benzo[d]imidazole]",0.00936,4.96,2.56,2.57,1.85
"CCn1c(N2CCN(CCN3CCNCC3)CC2)nc2c(Br)c(Br)c(Br)c(Br)c21 [Compound 441, 4,5,6,7-tetrabromo-1-ethyl-2-(4-(2-(piperazin-1-yl)ethyl)piperazin-1-yl)-1H-benzo[d]imidazole]",0.065,1.65,0.7,1.6,0.7
CCn1c(N2CCN(CCCN3CCOCC3)CC2)nc2c(Br)c(Br)c(Br)c(Br)c21 [Compound 450],0.125,2.9,1,3.6,1.5
"Brc1c(Br)c(Br)c2c(Br)n[nH]c2c1Br [Compound K64, 3,4,5,6,7-pentabromo-1H-indazole, reference compound]",> 1,> 10,9.13,> 10,> 10
"CN(C)c1nc2c(Br)c(Br)c(Br)c(Br)c2n1CC(=O)O [Compound K66, 1-carboxymethyl-2-dimethylamino-4,5,6,7-tetrabromo-benzimidazole, reference compound]",> 1,> 10,> 10,> 10,> 10
"CN(C)c1nc2c(Br)c(Br)c(Br)c(Br)c2[nH]1 [DMAT, 2-dimethylamino-4,5,6,7-tetrabromo-1H-benzimidazole, reference compound]",0.031,> 10,> 10,> 10,> 10
